Read-outs that look alike come from different tables or passages of the source.
What was measured:
[1] = molecular target: T1, rat adrenergic α1B receptor (Rattus norvegicus, UniProt P15823); assay: Radioligand binding, adrenergic α1B ([3H]Prazosin); details: [3H]Prazosin; for Percentage inhibition of ligand binding, Adrenergic α1B (0.1 μM) / Percentage inhibition of ligand binding, Adrenergic α1B: 0.1 µM
T1 construct: rat adrenergic α1B receptor obtained from Wistar Rat liver; from tissue; host or cells: Wistar rat liver
T1 sequence (P15823 1-515): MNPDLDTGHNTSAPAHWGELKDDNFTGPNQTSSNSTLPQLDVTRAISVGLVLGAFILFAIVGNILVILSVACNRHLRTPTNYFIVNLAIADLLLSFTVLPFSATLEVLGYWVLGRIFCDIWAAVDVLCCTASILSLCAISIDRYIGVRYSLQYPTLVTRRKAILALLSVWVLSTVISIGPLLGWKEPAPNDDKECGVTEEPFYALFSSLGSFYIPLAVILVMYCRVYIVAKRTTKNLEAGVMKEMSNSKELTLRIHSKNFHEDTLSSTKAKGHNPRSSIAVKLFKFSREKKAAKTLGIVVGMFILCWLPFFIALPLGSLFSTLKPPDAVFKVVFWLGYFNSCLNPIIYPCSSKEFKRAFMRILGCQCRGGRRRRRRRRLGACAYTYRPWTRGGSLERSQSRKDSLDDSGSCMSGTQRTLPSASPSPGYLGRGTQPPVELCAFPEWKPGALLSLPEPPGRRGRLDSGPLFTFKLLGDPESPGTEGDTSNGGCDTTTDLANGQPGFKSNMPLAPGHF
Method in brief: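 Specific binding, taken as total minus that remaining with 10 μM phentolamine, is measured after filtration and counting. Rat liver receptor preparation and 0.25 nM [3H]prazosin are incubated with compound in 50 mM Tris-HCl (pH 7.4, 0.5 mM EDTA) at 25° C for 60 min. Activity is reported as percent inhibition.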

[2] = molecular target: T2, human recombinant adrenergic α2B receptor (Homo sapiens, UniProt P18089); assay: Radioligand binding, adrenergic α2B ([3H]Rauwolscine); details: for inhibition at 0.03 µM / Percentage inhibition of ligand binding, Adrenergic α2B (0.03 μM) / Percentage inhibition of ligand binding, Adrenergic α2B: [3H]Rauwolscine; for Percentage inhibition of ligand binding, Adrenergic α2B (0.03 μM) / Percentage inhibition of ligand binding, Adrenergic α2B: 0.03 µM; for Ki: read-out: Ki α2B
T2 construct: expressed in transfected cells; host or cells: CHO-K1
T2 sequence (P18089 1-450): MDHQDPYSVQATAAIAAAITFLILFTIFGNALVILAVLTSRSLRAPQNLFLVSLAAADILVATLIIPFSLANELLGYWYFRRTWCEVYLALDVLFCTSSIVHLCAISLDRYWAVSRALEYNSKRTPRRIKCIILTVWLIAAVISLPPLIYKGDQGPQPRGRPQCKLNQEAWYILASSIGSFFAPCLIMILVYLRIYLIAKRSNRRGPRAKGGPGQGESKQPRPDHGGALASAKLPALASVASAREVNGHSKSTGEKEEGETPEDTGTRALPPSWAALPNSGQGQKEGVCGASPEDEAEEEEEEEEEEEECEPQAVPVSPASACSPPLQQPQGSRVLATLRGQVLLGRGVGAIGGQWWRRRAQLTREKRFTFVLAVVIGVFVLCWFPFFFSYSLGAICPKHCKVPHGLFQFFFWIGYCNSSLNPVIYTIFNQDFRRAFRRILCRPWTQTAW
Method in brief: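 Receptor expressed in CHO-K1 cells, assayed in 50 mM Tris-HCl pH 7.4 with 12.5 mM MgCl2, 1 mM EDTA and 0.2% BSA. Compounds were incubated with 2.5 nM [3H]Rauwolscine for 60 min at 25° C; 10 μM Prazosin defined non-specific binding. Filter counting gave percent inhibition of specific binding.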

[3] = molecular target: T3, human recombinant adrenergic α2A receptor (Homo sapiens, UniProt P08913); assay: Radioligand binding, adrenergic α2A ([3H]MK-912); details: for inhibition at 0.1 µM / Percentage inhibition of ligand binding, Adrenergic α2A (0.1 μM) / Percentage inhibition of ligand binding, Adrenergic α2A: [3H]MK-912; for Percentage inhibition of ligand binding, Adrenergic α2A (0.1 μM) / Percentage inhibition of ligand binding, Adrenergic α2A: 0.1 µM
T3 construct: expressed in transfected cells; host or cells: insect Sf9 cells
T3 sequence (P08913 1-465): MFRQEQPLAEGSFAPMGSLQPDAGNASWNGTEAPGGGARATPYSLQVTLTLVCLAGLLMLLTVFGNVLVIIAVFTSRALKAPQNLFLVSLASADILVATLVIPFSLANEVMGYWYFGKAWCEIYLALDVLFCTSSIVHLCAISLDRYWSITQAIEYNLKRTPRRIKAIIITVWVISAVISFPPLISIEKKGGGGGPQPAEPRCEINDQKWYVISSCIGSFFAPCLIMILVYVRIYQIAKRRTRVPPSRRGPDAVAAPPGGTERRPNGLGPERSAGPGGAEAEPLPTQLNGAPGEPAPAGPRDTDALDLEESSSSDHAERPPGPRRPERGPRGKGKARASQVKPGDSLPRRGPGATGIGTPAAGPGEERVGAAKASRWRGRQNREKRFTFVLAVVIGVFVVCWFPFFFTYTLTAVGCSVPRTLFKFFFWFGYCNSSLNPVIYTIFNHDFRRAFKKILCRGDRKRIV
Method in brief: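 Receptor expressed in Sf9 cells, in 50 mM Tris-HCl pH 7.4, 12.5 mM MgCl2, 2 mM EDTA; compounds incubated with 1 nM [3H]MK-912 for 60 min at 25 °C.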

[4] = read-out: Percentage inhibition of ligand binding, Adrenergic α1B (0.1 μM), compound at 0.1 μM, repeat datapoints each shown
[5] = read-out: Percentage inhibition of ligand binding, Adrenergic α2B (0.03 μM), compound at 0.03 μM, repeat datapoints each shown
[6] = read-out: Percentage inhibition of ligand binding, Adrenergic α2A (0.1 μM), compound at 0.1 μM, repeat datapoints each shown
[7] = compound at 0.1 μM, repeat datapoints each shown
[8] = compound at 0.03 μM, repeat datapoints each shown
[9] = compound at 0.1 μM, repeat assays, each datapoint shown
[10] = compound at 0.03 μM, repeat assays, each datapoint shown, read-out: Percentage inhibition of ligand binding, Adrenergic α2B
[11] = compound at 0.1 μM, repeat assays, each datapoint shown, read-out: Percentage inhibition of ligand binding, Adrenergic α2A
[12] = compound at 0.03 μM, repeat assays, each datapoint shown
[13] = compound at 0.1 μM, repeat assays, each datapoint shown, read-out: Percentage inhibition of ligand binding, Adrenergic α1B

## Cc1ccc2c(c1CO)c1c(n2CC(C)(O)c2cccnc2)CCN(C)C1 (stereo not drawn) [II-153]
[1]; [4]
  inhibition at 0.1 µM: 2%
[2]; [5]
  inhibition at 0.03 µM: 7%
[3]; [6]
  inhibition at 0.1 µM: 2%

## Cc1cnc2c(c1)c1c(n2CC(C)(O)c2ccc(C)nc2)CCN2CCCC12 (single isomer, unassigned) [148a]
[1]; [7]
  Percentage inhibition of ligand binding, Adrenergic α1B (0.1 μM): 23%
[2]; [8]
  Percentage inhibition of ligand binding, Adrenergic α2B (0.03 μM): 52%
[3]; [7]
  Percentage inhibition of ligand binding, Adrenergic α2A (0.1 μM): −5%

## Cc1ccc2c(c1)c1c(n2CC(C)(O)c2ccc(C)nc2)CCN2CCCC12 (stereo not drawn) [II-128a, 1-(9-methyl-1,2,3,4,5,10c-hexahydro-3a,6-diaza-cyclopenta[c]fluoren-6-yl)-2-(6-methyl-pyridin-3-yl)-propan-2-ol]
[1]; [4]
  inhibition at 0.1 µM: 61%
[2]; [5]
  inhibition at 0.03 µM: 97%
[3]; [6]
  inhibition at 0.1 µM: 34%

## CN1CCc2c(c3ccc(C(F)(F)F)cc3n2CC(O)c2cccnc2)C1 (single isomer, unassigned) [40a]
[1]; [9]
  Percentage inhibition of ligand binding, Adrenergic α1B: 2%
[2]; [10]
  inhibition at 0.03 µM: 27%
[3]; [11]
  inhibition at 0.1 µM: 7%

## COc1ccc(C(O)Cn2c3c(c4cc(C)ccc42)CCN(C)C3)cc1 (single isomer, unassigned) [20b, 2-(2,6-dimethyl-1,2,3,4-tetrahydro-β-carbolin-9-yl)-1-(4-methoxy-phenyl)-ethanol]
[1]; [9]
  Percentage inhibition of ligand binding, Adrenergic α1B: 94%
[2]; [12]
  Percentage inhibition of ligand binding, Adrenergic α2B: 36%
[3]; [9]
  Percentage inhibition of ligand binding, Adrenergic α2A: 28%

## Cc1cc(C)c2c(c1)c1c(n2CC(O)c2ccncc2)CCN2CCCC12 (single isomer, unassigned) [II-125d, 2-(8,10-dimethyl-2,3,5,6-tetrahydro-1H-indolizino[7,8-b]indol-7(11cH)-yl)-1-(pyridin-4-yl)ethanol]
[1]; [7]
  Percentage inhibition of ligand binding, Adrenergic α1B (0.1 μM): 64%
[2]; [8]
  Percentage inhibition of ligand binding, Adrenergic α2B (0.03 μM): 88%
[3]; [7]
  Percentage inhibition of ligand binding, Adrenergic α2A (0.1 μM): 71%

## Cc1ccc2c(c1)c1c(n2/C=C/c2ccncc2)CCNC1 [compound 79, 8-methyl-5-(2-(pyridin-4-yl)vinyl)-2,3,4,5-tetrahydro-1H-pyrido[4,3-b]indole]
[1]; [13]
  inhibition at 0.1 µM: 34%
[2]; [10]
  inhibition at 0.03 µM: 77%
[3]; [11]
  inhibition at 0.1 µM: 19%

## Cc1ccc2c(c1)c1c(n2CC(C)(O)c2cccnc2)CN(C)CC1 (single isomer, unassigned) [14a, 1-(2,6-dimethyl-1,2,3,4-tetrahydro-β-carbolin-9-yl)-2-pyridin-3-yl-propan-2-ol]
[1]; compound at 0.03 μM, repeat assays, each datapoint shown, read-out: Percentage inhibition of ligand binding, Adrenergic α1B
  inhibition at 0.03 µM: 17%
[1]; [9]
  Percentage inhibition of ligand binding, Adrenergic α1B: 44%
[1]; [13]
  inhibition at 0.1 µM: 43%
[2]; [12]
  Percentage inhibition of ligand binding, Adrenergic α2B: 98%
[2]; [10]
  inhibition at 0.03 µM: 97%
[2]
  Ki: 1.92 nM
[3]
  Ki: 123 nM

## Cc1ccc2c(c1)c1c(n2CC(O)c2ccncc2)CC2CCC1N2C (stereo not drawn) [compound 73]
[1]; [13]
  inhibition at 0.1 µM: 17%
[2]; [10]
  inhibition at 0.03 µM: 61%
[3]; [11]
  inhibition at 0.1 µM: 15%

## Cc1ccc2c(c1)c1c(n2CC(OC(=O)N(C)C)c2ccncc2)CCN(C)C1 (single isomer, unassigned) [141a, N,N-dimethyl-carbamic acid 2-(2,8-dimethyl-1,2,3,4-tetrahydro-pyrido[4,3-b]indol-5-yl)-1-pyridin-4-yl-ethyl ester]
[1]; [7]
  Percentage inhibition of ligand binding, Adrenergic α1B (0.1 μM): 25%
[2]; [8]
  Percentage inhibition of ligand binding, Adrenergic α2B (0.03 μM): 70%
[3]; [7]
  Percentage inhibition of ligand binding, Adrenergic α2A (0.1 μM): −5%

## Cc1ccc2c(c1)c1c(n2CC(OC(=O)N(C)C)c2ccncc2)CCN(C)C1 (single isomer, unassigned) [141b, N,N-dimethyl-carbamic acid 2-(2,8-dimethyl-1,2,3,4-tetrahydro-pyrido[4,3-b]indol-5-yl)-1-pyridin-4-yl-ethyl ester]
[1]; [4]
  inhibition at 0.1 µM: 28%
[2]; [8]
  Percentage inhibition of ligand binding, Adrenergic α2B (0.03 μM): 86%
[2]
  Ki: 3.44 nM
[2]; [5]
  inhibition at 0.03 µM: 79%
[3]; [6]
  inhibition at 0.1 µM: 19%

## Cc1ccc2c(c1)c1c(n2CC(O)c2ccncc2)CCN(C)CC1 (single isomer, unassigned) [13a, 2-(3,9-dimethyl-2,3,4,5-tetrahydroazepino[4,5-b]indol-6(1H)-yl)-1-(pyridin-4-yl)ethanol]
[1]; [9]
  Percentage inhibition of ligand binding, Adrenergic α1B: 75%
[2]; [12]
  Percentage inhibition of ligand binding, Adrenergic α2B: 37%
[3]; [9]
  Percentage inhibition of ligand binding, Adrenergic α2A: −2%

## Cc1ccc(C(C)(O)Cn2c3c(c4cc(Cl)ccc42)CN(C)CC3)cn1 (single isomer, unassigned) [93b]
[1]; [7]
  Percentage inhibition of ligand binding, Adrenergic α1B (0.1 μM): 1%
[2]; [8]
  Percentage inhibition of ligand binding, Adrenergic α2B (0.03 μM): 26%
[3]; [7]
  Percentage inhibition of ligand binding, Adrenergic α2A (0.1 μM): −5%

## Cc1cnc2c(c1)c1c(n2CCc2ccc(C)nc2)CCN2CCCC12 (single isomer, unassigned) [74b, 10-methyl-7-(2-(6-methylpyridin-3-yl)ethyl)-2,3,5,6,7,11c-hexahydro-1H-pyrido[3′,2′:4,5]pyrrolo[2,3-g]indolizine]
[1]; [9]
  Percentage inhibition of ligand binding, Adrenergic α1B: 28%
[2]; [10]
  inhibition at 0.03 µM: 27%
[3]; [9]
  Percentage inhibition of ligand binding, Adrenergic α2A: 14%

## Cc1ccc(C(O)Cn2c3c(c4cc(C)ccc42)CN(C)CC3)cc1 (stereo not drawn) [183a, 2-(1,2,3,4-tetrahydro-2,8-dimethylpyrido[4,3-b]indol-5-yl)-1-p-tolylethanol]
[1]; [4]
  inhibition at 0.1 µM: 77%
[2]; [5]
  inhibition at 0.03 µM: 82%
[3]; [6]
  inhibition at 0.1 µM: 56%

## Cc1cnc2c(c1)c1c(n2CC(N)c2ccc(C#N)cc2)CCNC1 (single isomer, unassigned) [160b]
[1]; [7]
  Percentage inhibition of ligand binding, Adrenergic α1B (0.1 μM): 65%
[2]; [8]
  Percentage inhibition of ligand binding, Adrenergic α2B (0.03 μM): 41%
[3]; [7]
  Percentage inhibition of ligand binding, Adrenergic α2A (0.1 μM): 5%
